# Values of other authors as cited in US4537898A, “Liquid formulations of dihydropyridines” (priority 1983, dated 1985).
compound,measurement,value
"COCCOC(=O)C1=C(C)NC(C)=C(C(=O)OC(C)C)C1c1cccc([N+](=O)[O-])c1 (stereo not shown) [nimodipine, Nimodipine]",solubility in water,0.2 mg per 100 ml
